Source: patent US11802127B2, “3,4-dihydro-2,7-naphthyridine-1,6(2H,7H)-diones as MEK inhibitors” (Pfizer Inc., priority 2021, dated 2023)

Columns and labels:
BCRP (hBCRP) = molecular target: T1, BCRP (hBCRP) (Homo sapiens, UniProt Q9UNQ0); assay: Efflux ratio in BCRP transfected MDCKII canine P-gp knockout cells; type: in vitro ADME; conditions: Papp(B−A)/Papp(A−B), read-out: Efflux ratio MDCKII-hBCRP knock-in,canine pg-P KO
T1 construct: expressed in transfected cells; host or cells: MDCKII (canine kidney) cells, canine P-gp knockout, transfected with BCRP
T1 sequence (Q9UNQ0 1-655): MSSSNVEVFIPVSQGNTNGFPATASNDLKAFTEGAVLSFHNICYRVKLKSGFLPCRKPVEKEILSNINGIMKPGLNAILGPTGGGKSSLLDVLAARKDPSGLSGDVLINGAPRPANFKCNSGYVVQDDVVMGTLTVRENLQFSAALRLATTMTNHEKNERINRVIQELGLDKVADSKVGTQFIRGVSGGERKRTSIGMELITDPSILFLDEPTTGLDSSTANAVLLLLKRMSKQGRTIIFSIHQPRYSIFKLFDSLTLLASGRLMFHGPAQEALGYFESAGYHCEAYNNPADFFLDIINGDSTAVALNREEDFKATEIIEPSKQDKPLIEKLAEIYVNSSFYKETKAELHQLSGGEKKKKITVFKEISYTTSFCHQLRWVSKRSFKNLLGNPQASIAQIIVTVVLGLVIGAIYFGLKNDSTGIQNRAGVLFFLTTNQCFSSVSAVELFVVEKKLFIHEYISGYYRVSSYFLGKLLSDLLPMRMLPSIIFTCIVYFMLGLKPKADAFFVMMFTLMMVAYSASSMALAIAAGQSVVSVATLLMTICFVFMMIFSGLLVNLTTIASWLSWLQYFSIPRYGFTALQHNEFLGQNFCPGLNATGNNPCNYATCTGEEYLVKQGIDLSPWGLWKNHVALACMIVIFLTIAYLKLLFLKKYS
Method in brief: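 Test article at 1 μM final (1% organic) in A→B and B→A directions across MDCKII P-gp knockout monolayers expressing BCRP, 2 h at 37° C., triplicate; lucifer yellow checked monolayer integrity. Concentrations by LC-MS/MS against labetalol internal standard; efflux ratio = Papp(B−A)/Papp(A−B).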

[1] = PK (Free Brain-to-Free Plasma Ratio) (Mouse); type: in vivo; conditions: brain and plasma, male CD-1 mice, oral gavage 10 mg/kg, sampling 2, 4, 8, 12 and 24 hours, (B/P)*(Bfu/Pfu)
Experimental: The ability of representative compounds to penetrate the BBB in mice was determined by evaluating the unbound brain-to-unbound plasma (also referred to as free brain-to-free plasma) concentration ratio in male CD-1 mice.
Brain compound levels were generated from oral mouse PK dosing with typical sampling times of 2, 4, 8, 12 and 24 hours post oral gavage dosing at 10 mg/kg. Brain samples were stored at −20±5° C. prior to analysis. Concentrations of test compound in mouse brain homogenate were determined by liquid chromatography tandem mass spectrometry (LC-MS/MS) following protein precipitation with acetonitrile. A 12-point calibration curve, ranging from 0.5 to 10,000 ng/mL, was prepared in duplicate. A solution of 400 μg/mL of test compound in dimethyl sulfoxide (DMSO) was serially diluted (3-fold) in 100% DMSO, and then 2.5 μL of each standard solution was added to 100 μL of naïve male CD-1 mice brain homogenate. To mimic the extraction in the standard curve, 2.5 μL of DMSO was added to all test samples. Both calibration and test brain homogenate samples were spiked with 10 μL of an IS (1 μg/mL of a structural analog). Brain homogenate was generated by adding 0.75 mL of 4:1 water:MeOH to each brain sample followed by homogenization for 1 minute with bead beater tubes a 6 m/s using an MP Fast Prep-24®. Proteins were precipitated from 100 μL of brain homogenate sample by the addition of 300 μL of acetonitrile. Samples were vortex-mixed for 5 minutes and spun in an Allegra X-12R centrifuge (Beckman Coulter, Fullerton, CA; SX4750A rotor) for 15 min at about 1,500×g at 4° C. A 100 μL aliquot of each supernatant was transferred via a 550 μL Personal Pipettor (Apricot Designs, Monrovia, CA) to 96-well plates and diluted 1:1 with HPLC grade water. The resulting plates were sealed with aluminum for LC-MS/MS analysis.
Brain-to-plasma ratios were calculated using the concentration of compound measured in the brain divided by the concentration of compound measured in the plasma. Brain-to-plasma ratios were always generated from a single animal and time point. Free brain-to-free plasma ratios were calculated by multiplying the brain-to-plasma ratio by the in vitro brain homogenate free fraction divided by the in vitro plasma free fraction using the following equation: (B/P)*(Bfu/Pfu).

| efflux ratio at 2 h, 1 μM (BCRP (hBCRP)) | Kp,uu (unbound brain-to-unbound plasma ratio) [1] | Compound |
| --- | --- | --- |
| 3.4 | 0.57 to 1.58 | CCc1ccc(Nc2c3c(cc(=O)n2C)CCN(OCCO)C3=O)c(F)c1 [Example 14, 8-((4-ethyl-2-fluorophenyl)amino)-2-(2-hydroxyethoxy)-7-methyl-3,4-dihydro-2,7-naphthyridine-1,6(2H,7H)-dione] |
| 9 | 0.33 to 2.92 | Cn1c(Nc2ccc(OC(F)F)cc2F)c2c(cc1=O)CCN(OCCO)C2=O [Example 22, 8-((4-(difluoromethoxy)-2-fluorophenyl)amino)-2-(2-hydroxyethoxy)-7-methyl-3,4-dihydro-2,7-naphthyridine-1,6(2H,7H)-dione] |

Continued, compound first:

| Compound | efflux ratio at 2 h, 1 μM (BCRP (hBCRP)) | Kp,uu (unbound brain-to-unbound plasma ratio) [1] |
| --- | --- | --- |
| CSc1ccc(Nc2c3c(cc(=O)n2C)CCN(OCCO)C3=O)c(F)c1 [Example 6, 8-((2-fluoro-4-(methylthio)phenyl)amino)-2-(2-hydroxyethoxy)-7-methyl-3,4-dihydro-2,7-naphthyridine-1,6(2H,7H)-dione] | 5.5 | 0.88 to 1.26 |
| Cn1c(Nc2ccc(Br)cc2F)c2c(cc1=O)CCN(OCCO)C2=O [Example 7, 8-((4-bromo-2-fluorophenyl)amino)-2-(2-hydroxyethoxy)-7-methyl-3,4-dihydro-2,7-naphthyridine-1,6(2H,7H)-dione] | 9.6 | 0.62 to 1.06 |
| Cn1c(Nc2ccc(I)cc2F)c2c(cc1=O)CCN(OCCO)C2=O [Example 8, 8-((2-fluoro-4-iodophenol)amino)-2-(2-hydroxyethoxy)-7-methyl-3,4-dihydro-2,7-naphthyridine-1,6(2H,7H)-dione] | 3.4 | 1.01 to 16.1 |
| Cc1c2c(c(Nc3ccc(Br)cc3F)n(C)c1=O)C(=O)N(OCCO)CC2 [Example 36, 8-((4-bromo-2-fluorophenyl)amino)-2-(2-hydroxyethoxy)-5,7-dimethyl-3,4-dihydro-2,7-naphthyridine-1,6(2H,7H)-dione] | 3.5 | 0.83 to 2.09 |
